From patent publication US20220323325A1, “COMPOSITIONS COMPRISING DISSUBSTITUTE TEREPHTHALATES AND ALSO LIGHT PROECTION FILTER SUBSTANCES, DEODORANT AND/OR ANTIPERSPIRANT ACTIVE INGREDIENTS” (Evonik Operations GmbH, priority 2019, published 2022)

Assay: Dissolution capacity of UV light protection filters
Format: physicochemical
Conditions: 22° C., percentage by weight; for dissolution capacity for BEMT (maximal soluble amount): Bis-Ethylhexyloxyphenol Methoxyphenyl Triazine in the compound as solvent; for dissolution capacity for BMDM (maximal soluble amount): Butyl Methoxydibenzoylmethane in the compound as solvent; for dissolution capacity for EHT (maximal soluble amount): Ethylhexyl Triazone in the compound as solvent
Excerpt: To test the dissolution capacity of UV light protection filters, three representative UVA or UVB light protection filters were selected representatively. These are: • Butyl Methoxydibenzoylmethane (BMDM) • Ethylhexyl Triazone (EHT) • Bis-Ethylhexyloxyphenol Methoxyphenyl Triazine (BEMT).
To determine the dissolution capacity for these three UV light protection filters, a certain amount (50 g) of one of the compounds according to the invention was initially charged in each case and temperature-controlled at 22° C. A percentage by weight of a UV light protection filter was added and stirred until this amount had fully and homogeneously dissolved. This procedure was repeated until the maximal soluble amount of the UV light protection filter had been exceeded. […] If the maximum concentration had been roughly determined in this manner, a fine determination of the concentration range was repeated around this maximum concentration using smaller weighed amounts of the UV light protection filter.

dissolution capacity for BEMT (maximal soluble amount) [%]	dissolution capacity for BMDM (maximal soluble amount) [%]	dissolution capacity for EHT (maximal soluble amount) [%]	Compound
11	18	6	CCCCCCCC(=O)OCCOc1ccccc1 [2-Phenoxyethyl octanoate, reference compound]
23	23	18	CCCCOC(=O)c1ccc(C(=O)OCCCC)cc1 [Di(n-)butane terephthalate]

Compound	dissolution capacity for BEMT (maximal soluble amount) [%]	dissolution capacity for BMDM (maximal soluble amount) [%]	dissolution capacity for EHT (maximal soluble amount) [%]
CC(C)CCOC(=O)c1ccc(C(=O)OCCC(C)C)cc1 [Di(iso)pentyl terephthalate]	13	22	14
